Measurements taken from patent publication US20230028293A1, “MULTIPLE MYELOMA COMBINATION THERAPIES BASED ON PROTEIN TRANSLATION INHIBITORS AND IMMUNOMODULATORS” (The Regents of the University of Colorado, a body corporate, priority 2019, published 2023).

How the values were obtained:
Assay type in all cases: cell-based
MM cell lines = experiment: Two-drug combination matrix in MM cell lines, ZIP synergy; details: for ZIP δ-score for synergy with omacetaxine: BET inhibitor with omacetaxine; for synergy of translation inhibitor with pomalidomide: MM.1S and H929 cells
[1] = system: protein translation in MM cell lines and primary MM cells; experiment: OP-Puro protein translation assay in vitro; details: omacetaxine 50 nM 2.5 h, bortezomib 6 h, 24 h, 48 h
Method: To examine whether myeloma cells depend on inherently high protein synthesis, the O-Propargyl-puromycin (OP-Puro) assay was used to measure the rate of amino-acid incorporation into translating ribosomes by flow cytometry.
Protein synthesis levels were determined in vitro utilizing the puromycin analog O-propargyl-puromycin (OP-Puro) in the protein synthesis assay kit (Cayman Chemical) according to manufacturer instructions. For in vivo protein synthesis, engrafted NSG mice were injected IP with 500 μg puromycin (Gibco), then euthanized after 1.5 h, marrow was flushed, and cells stained with anti-puromycin antibody (12D10, Alexa-488, Millipore Sigma), followed by flow cytometry.

MM1.S cells = experiment: Timecourse of apoptosis and cell death by Annexin V and DAPI flow cytometry
Text: FIG. 2A depicts the timecourse of induction of apoptosis and cell death by omacetaxine in MM1.S cells as measured by Annexin V and DAPI staining by flow cytometry.
FIG. 10A depicts the timecourse of induction of apoptosis and cell death by pomalidomide in MM1.S cells as measured by annexin V and DAPI staining by flow cytometry.

## CCS(=O)(=O)Nc1ccc(Oc2ccc(F)cc2F)c(-c2cn(C)c(=O)c3[nH]ccc23)c1 [ABBV-075]
MM cell lines; ABBV-075 with pomalidomide, MM.1S cell line
  ZIP δ-score for synergy with pomalidomide: 6.597
MM cell lines; MM.1S cell line
  ZIP δ-score for synergy with omacetaxine: 12.02

## Cc1sc2c(c1C)C(c1ccc(Cl)cc1)=N[C@@H](CC(=O)OC(C)(C)C)c1nnc(C)n1-2 [JQ1]
MM cell lines; MM.1S cell line
  ZIP δ-score for synergy with omacetaxine: 17.56
MM cell lines; JQ1 100 nM with pomalidomide 1.25 μM, U266, 96 h
  ZIP δ-score for synergy with pomalidomide: 21.18

## Cc1sc2c(c1C)C(c1ccc(Cl)cc1)=N[C@@H](CC(=O)Nc1ccc(O)cc1)c1nnc(C)n1-2 [OTX015]
MM cell lines; MM.1S cell line
  ZIP δ-score for synergy with omacetaxine: 7.64
MM cell lines; OTX015 with pomalidomide, MM cell lines
  ZIP δ-score for synergy with pomalidomide: 1.84

## COc1ccc(C[C@H]2NC[C@H](O)[C@H]2OC(C)=O)cc1 [anisomycin]
MM cell lines
  synergy of translation inhibitor with pomalidomide: synergistic

## CC(C)C[C@H](NC(=O)[C@H](Cc1ccccc1)NC(=O)c1cnccn1)B(O)O [bortezomib]
[1]
  ability to inhibit translation in myeloma cell lines: did not occur
[1]; listed as Boitezomib
  ability to inhibit translation in myeloma cell lines: did not change translation levels

## C[C@@H]1C[C@@H]([C@H](O)CC2CC(=O)NC(=O)C2)C(=O)[C@@H](C)C1 [cycloheximide]
MM cell lines
  synergy of translation inhibitor with pomalidomide: synergistic

## C/C(=C\[C@H](C)C(=O)C[C@H](O)CC1CC(=O)NC(=O)C1)[C@@H]1OC(=O)/C=C/CC/C=C/C=C\[C@@H]1C [lactimidomycin]
MM cell lines
  synergy of translation inhibitor with pomalidomide: synergistic

## Nc1cccc2c1C(=O)N(C1CCC(=O)NC1=O)C2=O (stereo not shown) [pomalidomide]
MM1.S cells
  time at which cell death began: 24 h
  time at which induction of apoptosis started: 24 h
